{"source": "patent US10919879B2", "about": "“Synthesis and novel salt forms of (R)-5-((E)-2-pyrrolidin-3-ylvinyl)pyrimidine” (Oyster Point Pharma, Inc., priority 2008, dated 2021)", "key": {"[1]": {"test": "Water solubility of the free base", "assay_type": "physicochemical", "conditions": "free base form, viscous oil", "experimental": "Aqueous solubility was determined by suspending sufficient compound in water to give a maximum final concentration of ≥10 mg/mL of the parent free-form of the compound. The suspension was equilibrated at 25° C. for 24 h, and then the pH was measured. The suspension was then filtered through a glass fiber C filter into a 96 well plate. The filtrate was then diluted by a factor of 101. Quantitation was by HPLC with reference to a standard solution of approximately 0.1 mg/mL in DMSO. Different volumes of the standard, diluted and undiluted sample solutions were injected. The solubility was calculated using the peak areas determined by integration of the peak found at the same retention time as the principal peak in the standard injection. If there was sufficient solid in the filter plate, the XRPD was collected."}, "[2]": {"test": "Stability of the free base", "assay_type": "physicochemical", "conditions": "free base form, viscous oil"}, "α4β2 nicotinic subtype": {"target": "α4β2 nicotinic subtype (Homo sapiens, UniProt P17787+P43681)", "sequence (P43681 29-627 limits assumed)": "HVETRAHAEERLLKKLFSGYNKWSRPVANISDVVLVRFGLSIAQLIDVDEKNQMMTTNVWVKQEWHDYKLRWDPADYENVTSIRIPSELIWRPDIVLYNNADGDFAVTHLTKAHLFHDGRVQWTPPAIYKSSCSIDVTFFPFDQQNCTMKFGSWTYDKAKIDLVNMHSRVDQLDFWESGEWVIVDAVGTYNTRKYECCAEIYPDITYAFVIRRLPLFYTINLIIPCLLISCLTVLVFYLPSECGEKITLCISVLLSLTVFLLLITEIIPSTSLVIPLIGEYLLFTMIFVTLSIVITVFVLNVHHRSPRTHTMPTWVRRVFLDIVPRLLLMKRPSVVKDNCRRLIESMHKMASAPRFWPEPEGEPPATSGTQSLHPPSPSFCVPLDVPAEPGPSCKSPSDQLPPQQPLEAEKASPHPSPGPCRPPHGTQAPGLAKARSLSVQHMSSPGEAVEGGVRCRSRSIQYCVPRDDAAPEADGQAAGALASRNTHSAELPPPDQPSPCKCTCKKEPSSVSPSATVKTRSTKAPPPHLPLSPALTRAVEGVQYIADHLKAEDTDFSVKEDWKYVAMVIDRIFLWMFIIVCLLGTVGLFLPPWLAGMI", "sequence (P17787 26-502)": "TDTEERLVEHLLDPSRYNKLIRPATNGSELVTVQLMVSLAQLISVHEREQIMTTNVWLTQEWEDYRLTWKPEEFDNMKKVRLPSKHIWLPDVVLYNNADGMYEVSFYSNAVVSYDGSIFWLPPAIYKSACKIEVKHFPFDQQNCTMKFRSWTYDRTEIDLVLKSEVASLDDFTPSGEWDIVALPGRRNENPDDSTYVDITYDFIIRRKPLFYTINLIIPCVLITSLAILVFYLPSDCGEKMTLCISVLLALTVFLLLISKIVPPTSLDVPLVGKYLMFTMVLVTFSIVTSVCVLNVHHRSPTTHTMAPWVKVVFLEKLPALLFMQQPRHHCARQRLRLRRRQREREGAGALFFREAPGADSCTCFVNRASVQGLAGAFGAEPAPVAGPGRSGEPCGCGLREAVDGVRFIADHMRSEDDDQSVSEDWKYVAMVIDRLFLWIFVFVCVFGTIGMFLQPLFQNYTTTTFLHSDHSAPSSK", "conditions": "α4β2 over α7, ganglionic and muscle subtypes; background statement, no test described; cited from earlier work"}}}
{"molecule": "C(=C\\[C@H]1CCNC1)/c1cncnc1", "note": "[(R)-5-((E)-2-pyrrolidin-3-ylvinyl)pyrimidine]", "values": [{"measurement": "water solubility", "setting": "[1]", "result": "limited"}, {"measurement": "stability", "setting": "[2]", "result": "limited"}, {"measurement": "NNR agonist selectivity", "setting": "α4β2 nicotinic subtype", "result": "selectivity for the α4β2 nicotinic subtype over other nicotinic subtypes"}]}
